The record followed here is US20150087586A1, “PEGYLATED C-PEPTIDE” (Cebix, Inc., priority 2012, published 2015).

The nature of this series: Pharmacokinetic study of unmodified C-peptide in beagle dogs, single S.C. dose, plasma ELISA. The settings on record: single S.C. dose 0.5 mg/kg. The format is in vivo. The method, then:
A pharmacokinetic (PK) study was conducted to determine the C-peptide PK profile with unmodified C-peptide in beagle dogs.
Two male and one female dog received S.C. the unmodified synthetic human C-peptide (0.5 mg/kg; 0.025 mL/kg) formulated in phosphate buffered saline (20 mg/mL). Dogs were bled by venipuncture and blood samples were collected at predetermined time points over 14 days. Plasma samples were obtained after centrifugation of the blood (3,000 rpm for 10 minutes) and stored at −80° C. until analysis. A CRO with Good Laboratory Practice (GLP) capabilities (MicroConstants, Inc.; San Diego, Calif.) performed the bioanalytical work. […] Results were expressed as C-peptide concentrations. For the PK analysis, the below quantitation level (BQL) was treated as zero and nominal time points were used for all calculations. PK parameters were determined by standard model independent methods based on the individual plasma concentration-time data for each animal using model 200 in WinNonlin Professional 5.2.1 (Pharsight Corp., Mountain View, Calif.).
(In general: An ELISA detects its analyte on a solid surface through an enzyme-linked reagent.)

As to `CC(C)C[C@H](NC(=O)[C@H](C)NC(=O)[C@H](CC(C)C)NC(=O)[C@@H]1CCCN1C(=O)[C@H](CCC(N)=O)NC(=O)[C@H](CC(C)C)NC(=O)[C@H](CO)NC(=O)CNC(=O)[C@H](C)NC(=O)CNC(=O)[C@@H]1CCCN1C(=O)CNC(=O)CNC(=O)CNC(=O)[C@H](CC(C)C)NC(=O)[C@H](CCC(=O)O)NC(=O)[C@@H](NC(=O)[C@H](CCC(N)=O)NC(=O)CNC(=O)[C@@H](NC(=O)[C@H](CCC(N)=O)NC(=O)[C@H](CC(C)C)NC(=O)[C@H](CC(=O)O)NC(=O)[C@H](CCC(=O)O)NC(=O)[C@H](C)NC(=O)[C@@H](N)CCC(=O)O)C(C)C)C(C)C)C(=O)N[C@@H](CCC(=O)O)C(=O)NCC(=O)N[C@@H](CO)C(=O)N[C@@H](CC(C)C)C(=O)N[C@@H](CCC(N)=O)C(=O)O` [CP-AQ], the “tolerability (clinical abnormalities)” value (14 days observation) is “well tolerated”. Where the note is “plasma”, the “time until circulating levels of C-peptide were below quantitation level (BQL)” value is “BQL within half a day”.
